Laboratory results from US20140228318A1, “Curcumin formulations and methods for making such formulations” (Sanford Research/USD, priority 2010, published 2014).

Legend:
Type in all cases: cell-based
[1] = test system: C4-2 prostate cancer cells; experiment: In vitro cytotoxicity / cell proliferation (MTS assay); settings: 48 h, C4-2, 2 days, read-out: IC50 (concentration of drug required to kill 50% of cells)
Protocol: (§1) To examine the anti-cancer activity of the CD-CUR inclusion complex (CD-30), cell proliferation assays were performed using C4-2 and DU145 prostate cancer cell lines. Prostate cancer cells (5000 cells/well in 100 μL media) were seeded in 96-well plates and allowed to attach overnight. […] Media containing equivalent amounts of CD in PBS or DMSO was used as the control. […] The reagent (25 μL/well) was added to each well and plates were incubated for 3 hrs at 37° C. The color intensity was measured at 492 nm using a microplate reader (BioMate 3 UV-Vis spectrophotometer, Thermo Electron Corporation, Hudson, N.H.). […] Just before adding MTS reagents, representative phase contrast microscope images of cells were taken using an Olympus BX 41 microscope (Olympus, Center Valley, Pa., USA).

[2] = test system: DU145 prostate cancer cells; experiment: as above; settings: Homo sapiens, DU-145, 48 h, DU145, 2 days, read-out: IC50 (concentration of drug required to kill 50% of cells)
Protocol: as §1

[3] = test system: C4-2 prostate cancer cells; experiment: Colony formation (clonogenic) assay; settings: C4-2, 2 μM, 10 day period
Protocol: (§2) Prostate cancer cells (1000) were seeded in 2 mL media in 6-well plates and allowed 2-3 days to attach and initiate the colony formations. […] The plates were then washed twice with PBS, fixed in chilled methanol, stained with hematoxylin (Fisher Scientific, Fair Lawn, N.J., USA), washed with water and air dried. The number of colonies was counted by a MultiImage™ Cabinet (Alpha Innotech Corporation, San Leandro, Calif., USA) using AlphaEase Fc software. The percent of colonies was calculated using the number of colonies formed in treatment divided by number of colonies formed in DMSO or CD in PBS controls.

[4] = test system: DU145 prostate cancer cells; experiment: Colony formation (clonogenic) assay; settings: DU145, 2 μM, 10 day period
Protocol: as §2

`COc1cc(/C=C/C(=O)CC(=O)/C=C/c2ccc(O)c(OC)c2)ccc1O` [CUR, bis(4-hydroxy-3-methoxyphenyl)-1,6-diene-3,5-dione] was tested, and the IC50 [1] was 19.6 µM, the IC50 [2] was 18.4 µM and the “colonies, percent of DMSO or CD control” value [3] was 96%. The “colonies, percent of DMSO or CD control” value [4] was 74%.
